Assay results: patent publication US20240391889A1, “ANTIMICROBIAL COMPOUNDS AND THE METHODS OF USE” (priority 2021, published 2024)
Values after ≈ are worked out from the molar mass of the structure shown. Numbered stars: 1 amine (or outer) side, 2 acyl side, 3 side chain; on linkers, the order of the positions; unused ones are H or OH. Square brackets hold non-standard residues; d marks the D form. Peptide text beside a SMILES is read from it. N(tridecyl)Gly = CCCCCCCCCCCCCNCC(=O)O; X1 = CC(c1ccccc1)N(CC(=O)[*:2])[*:1]; NFurfurylGly = O=C(O)CNCc1ccco1; Gly(N(CH2)3NH2) = NCCCNCC(=O)O; Nphe = O=C(O)CNCc1ccccc1; NPrGly = CCCNCC(=O)O; Nlys = NCCCCNCC(=O)O

What was measured:
C. auris = test: MIC assay, C. auris; format: cell-based, Candida auris
Mycobacterium smegmatis = test: MIC assay, M. smegmatis (72 h); format: cell-based
Method: The minimum inhibitory concentration (MIC) of peptoids against the ESKAPE bacteria (Enterococcus faecium ATCC 6569; Staphylococcus aureus ATCC 29213; Klebsiella pneumoniae ATCC 13883; Acinetobacter baumanii ATCC 19606; Pseudomonas aeruginosa ATCC 25619; Enterococcus faecalis ATCC 29212; and Escherichia coli ATCC 25922) was determined following CLSI guidelines (CLSI. Methods for Dilution Antimicrobial Susceptibility Tests for Bacteria That Grow Aerobically, 11th Edition. Clinical and Laboratory Standards Institute, 2018). The MIC against Mycobacterium smegmatis was also determined following CLSI guidelines (Woods, G. L. et al. Susceptibility Testing of Mycobacteria, Nocardiae, and Other Aerobic Actinomycetes, 2nd edition. (2011)). Colonies picked from streaked tryptic soy agar plates were added to tryptic soy broth (TSB) to achieve a turbidity of OD600=0.08-0.15. Inoculant was diluted 1:200 into cation adjust Mueller Hinton Broth (CAMHB) and 90 μL was plated into each well of a 96 well black-wall plate. […] Following incubation for the ESKAPE bacteria, PRESTO BLUE (10 μL) was added to each well and incubated at 37° C. for one hour before measuring fluorescence on a SPECTRAMAX M5 plate reader (Ex. 555 nm; Em. 585 nm). Following incubation for M. smegmatis, wells were scored following CLSI guidelines to determine MIC. […]

[1] = system: single donor human red blood cells (hRBC)

CCCCCCCCCCCCCNCC(=O)N(CCC)CC(=O)N(CC(=O)N(CCCCN)CC(=O)N(CC(=O)N(CC(=O)N(CCCN)CC(N)=O)Cc1ccccc1)Cc1ccco1)C(C)c1ccccc1 (stereo not drawn) [RMG9-11] (H-[N(tridecyl)Gly][NPrGly][X1][Nlys][NFurfurylGly][Nphe][Gly(N(CH2)3NH2)]-NH2)
MIC C. auris (C. auris): 12.5 µg/mL (≈ 12 µM)
MIC M. smegmatis (Mycobacterium smegmatis): 6.25 µg/mL (≈ 5.99 µM)
HC10 hRBC [1]: 29 µg/mL
